This note sets out measurements from ChEMBL document CHEMBL1201862, “PubChem BioAssay data set” (2004).

Test systems include DU-145; HL-60; HCT-15; SNB-19; MOLT-4; CAKI-1; SF-268; NCI-H460; SF-295; MDA-MB-231; MDA-MB-435; OVCAR-8; UACC-62; KM12; NCI/ADR-RES; SK-MEL-2; SK-MEL-5; OVCAR-5; OVCAR-3; LOX IMVI.
Common to all, as to experiment: NCI-60 cell line screen, 48 h

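A five-concentration, 48-hour dose response in 96-well plates underlies each endpoint, interpolated linearly between surrounding concentrations. The concentration for 50% growth inhibition is given as GI50.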 The source made the active and inactive calls. No stated cut-off is given here; in the data, active = GI50 up to about 1.1 µM and inactive = higher. Bounds are passed on as bounds.

Take `O=c1c(Cl)c(Cl)c(=O)c2sc3cc(Cl)ccc3[nH]c1=2`: the GI50 in the assay with DU-145 is > 100 µM (inactive); in the assay on HL-60 it was 7.73 µM (inactive); with HCT-15 it was 42.3 µM; in the assay with SNB-19, 78.9 µM (inactive); with MOLT-4 it was 2.47 µM (inactive); with CAKI-1 it was > 100 µM (inactive). Also, the GI50 is 38.6 µM (inactive) in the assay with SF-268; > 100 µM (inactive) in the assay with NCI-H460; 70.8 µM (inactive) in the assay with SF-295; 2.04 µM (inactive) in the assay with MDA-MB-231; 34 µM (inactive) with MDA-MB-435; 14.5 µM (inactive) in the assay with OVCAR-8. The GI50 with UACC-62 is 23.4 µM (inactive); with KM12, > 100 µM (inactive); with NCI/ADR-RES, 5.36 µM (inactive); with SK-MEL-2, > 100 µM (inactive); in the assay on SK-MEL-5, 25.1 µM (inactive); with OVCAR-5, 29.6 µM (inactive). For the same compound, the GI50 in the assay with OVCAR-3 was 15 µM (inactive).

With `Cc1cc(C)c2nc3c(c(C(O)C4CCCCN4)c2c1)CC/C3=C\c1ccc(Cl)cc1` (stereo unspecified), the GI50 with DU-145 was 81.1 µM (inactive); with HL-60 it was 10.7 µM (inactive); in the assay on HCT-15, 58.7 µM; in the assay with SNB-19, > 100 µM (inactive); in the assay with MOLT-4, 26.7 µM (inactive); in the assay on CAKI-1, 94.6 µM (inactive). For the same compound, the GI50 was > 100 µM (inactive) in the assay with SF-268; 32.6 µM (inactive) in the assay with NCI-H460; 73.1 µM (inactive) in the assay on SF-295; 73.3 µM (inactive) with MDA-MB-231; 55.1 µM (inactive) in the assay with MDA-MB-435; 58.6 µM (inactive) in the assay with OVCAR-8. In addition, the GI50 in the assay with UACC-62 was 65 µM (inactive); in the assay with KM12, 64.3 µM (inactive); with NCI/ADR-RES, 52.1 µM (inactive); in the assay on SK-MEL-2, 64.9 µM (inactive); with SK-MEL-5 it was 28.9 µM (inactive); with OVCAR-5, 41.1 µM (inactive). The GI50 with OVCAR-3 is 42.1 µM (inactive).

Consider `CCCCC(=O)N/S(=N/C(=O)c1ccccc1)C(Cl)(Cl)Cl` (stereo unspecified), for which the GI50 is > 100 µM (inactive) in the assay on DU-145; 79.1 µM (inactive) in the assay on HL-60; more than 100 µM with HCT-15; > 100 µM (inactive) in the assay on SNB-19; > 100 µM (inactive) in the assay on MOLT-4; > 100 µM (inactive) in the assay on SF-268. Besides, the GI50 in the assay on NCI-H460, with SF-295, in the assay on MDA-MB-231, in the assay on MDA-MB-435, in the assay with OVCAR-8 and in the assay with UACC-62 was > 100 µM (inactive) in each case. Besides, the GI50 in the assay with LOX IMVI, with KM12, with NCI/ADR-RES, in the assay on SK-MEL-2, in the assay on SK-MEL-5 and in the assay on OVCAR-5 was > 100 µM (inactive) in each case. Moreover, the GI50 with OVCAR-3 was > 100 µM (inactive).

In the case of `COc1ccc(/C=C/[N+](=O)[O-])cc1`, the GI50 in the assay on DU-145 is 6.52 µM (inactive); in the assay on HL-60, 2.77 µM (inactive); in the assay with HCT-15, 3.7 µM; with SNB-19, 3.52 µM (inactive); in the assay with MOLT-4, 2.8 µM (inactive); in the assay with SF-268, 2.92 µM (inactive). The GI50 in the assay on NCI-H460 was 6.9 µM (inactive); in the assay with SF-295, 2.62 µM (inactive); in the assay with MDA-MB-231 it was 19.4 µM (inactive); with MDA-MB-435, 1.86 µM (inactive); in the assay with OVCAR-8, 2.67 µM (inactive); in the assay with UACC-62 it was 14.9 µM (inactive). Also, the GI50 was 2.13 µM (inactive) with LOX IMVI; 3.18 µM (inactive) in the assay on KM12; 30.7 µM (inactive) in the assay on NCI/ADR-RES; 20 µM (inactive) in the assay on SK-MEL-2; 11.6 µM (inactive) in the assay with SK-MEL-5; 14.4 µM (inactive) in the assay on OVCAR-5. Besides, the GI50 with OVCAR-3 was 3.61 µM (inactive).
